Measurements published in PMC10866072, “Design, synthesis, molecular modelling and biological evaluation of novel 6-amino-5-cyano-2-thiopyrimidine derivatives as potent anticancer agents against leukemia and apoptotic inducers” (Journal of Enzyme Inhibition and Medicinal Chemistry, 2024).

Assays:
NCI-H460 = format: cell-based; details: Homo sapiens, one dose 10^-5 M, 48 h, read-out: % growth
HCT-116 = format: cell-based; details: Homo sapiens, one dose 10^-5 M, 48 h, read-out: % growth
UO-31 = format: cell-based; details: Homo sapiens, UO-31, 48 h, one dose 10^-5 M, 48 h
HS 578T = format: cell-based; details: Homo sapiens; one dose 10^-5 M, 48 h; HS 578T; read-out: % growth
HCC-2998 = format: cell-based; details: Homo sapiens, one dose 10^-5 M, 48 h
LOX IMVI = format: cell-based; details: Homo sapiens, one dose 10^-5 M, 48 h, read-out: % growth
K-562 = format: cell-based; details: Homo sapiens, K562, one dose 10^-5 M, 48 h
MALME-3M = format: cell-based; details: Homo sapiens, one dose 10^-5 M, 48 h
HL-60(TB) = format: cell-based; details: Homo sapiens, one dose 10^-5 M, 48 h
SF-295 = format: cell-based; details: Homo sapiens, one dose 10^-5 M, 48 h
SW-620 = format: cell-based; details: Homo sapiens, one dose 10^-5 M, 48 h
HCT-15 = format: cell-based; details: Homo sapiens, one dose 10^-5 M, 48 h, read-out: % growth
OVCAR-4 = format: cell-based; details: Homo sapiens, one dose 10^-5 M, 48 h
OVCAR-8 = format: cell-based; details: Homo sapiens, one dose 10^-5 M, 48 h
786-0 = format: cell-based; details: Homo sapiens, one dose 10^-5 M, 48 h
NCI-H23 = format: cell-based; details: Homo sapiens, one dose 10^-5 M, 48 h, read-out: % growth
CAKI-1 = format: cell-based; details: Homo sapiens, CAKI-1, 48 h, one dose 10^-5 M, 48 h
MDA-MB-468 = format: cell-based; details: Homo sapiens, one dose 10^-5 M, 48 h
COLO 205 = format: cell-based; details: Homo sapiens, one dose 10^-5 M, 48 h
MOLT-4 = format: cell-based; details: Homo sapiens, one dose 10^-5 M, 48 h, read-out: % growth
MCF7 = format: cell-based; details: Homo sapiens, one dose 10^-5 M, 48 h, read-out: % growth
KM12 = format: cell-based; details: Homo sapiens, one dose 10^-5 M, 48 h
SNB-19 = format: cell-based; details: Homo sapiens, one dose 10^-5 M, 48 h, read-out: % growth
RPMI-8226 = format: cell-based; details: Homo sapiens, one dose 10^-5 M, 48 h
NCI-H522 = format: cell-based; details: Homo sapiens, one dose 10^-5 M, 48 h
IGROV1 = format: cell-based; details: Homo sapiens, IGROV-1, one dose 10^-5 M, 48 h, read-out: % growth
A498 = format: cell-based; details: Homo sapiens, one dose 10^-5 M, 48 h
UACC-62 = format: cell-based; details: Homo sapiens, one dose 10^-5 M, 48 h
HT29 = format: cell-based; details: Homo sapiens, HT-29, one dose 10^-5 M, 48 h
BT-549 = format: cell-based; details: Homo sapiens, one dose 10^-5 M, 48 h
EKVX = format: cell-based; details: Homo sapiens, one dose 10^-5 M, 48 h
SF-539 = format: cell-based; details: Homo sapiens, one dose 10^-5 M, 48 h
HOP-92 = format: cell-based; details: Homo sapiens, one dose 10^-5 M, 48 h
PC-3 = format: cell-based; details: Homo sapiens, one dose 10^-5 M, 48 h
NCI/ADR-RES = format: cell-based; details: Homo sapiens, one dose 10^-5 M, 48 h
UACC-257 = format: cell-based; details: Homo sapiens, one dose 10^-5 M, 48 h
OVCAR-3 = format: cell-based; details: Homo sapiens, one dose 10^-5 M, 48 h
CCRF-CEM = format: cell-based; details: Homo sapiens, one dose 10^-5 M, 48 h
M14 = format: cell-based; details: Homo sapiens, one dose 10^-5 M, 48 h
SK-OV-3 = format: cell-based; details: Homo sapiens, one dose 10^-5 M, 48 h
SN12C = format: cell-based, human; details: Homo sapiens, one dose 10^-5 M, 48 h
T-47D = format: cell-based; details: Homo sapiens, T47D, one dose 10^-5 M, 48 h, read-out: % growth
ACHN = format: cell-based; details: Homo sapiens, one dose 10^-5 M, 48 h
MDA-MB-435 = format: cell-based; details: Homo sapiens, one dose 10^-5 M, 48 h, read-out: % growth
A549/ATCC = format: cell-based; details: Homo sapiens, one dose 10^-5 M, 48 h
SK-MEL-5 = format: cell-based; details: Homo sapiens, one dose 10^-5 M, 48 h, read-out: % growth
[1] = system: full NCI 60 cell lines panel; details: for activity at 10 µM: Homo sapiens, 60 cell, 48 h, read-out: Mean % growth; for activity on all 60 cancer cell lines tested (in words): one dose
DU-145 = format: cell-based; details: Homo sapiens, one dose 10^-5 M, 48 h
SK-MEL-28 = format: cell-based; details: Homo sapiens, one dose 10^-5 M, 48 h
HOP-62 = format: cell-based; details: Homo sapiens, one dose 10^-5 M, 48 h
MDA-MB-231/ATCC = format: cell-based; details: Homo sapiens, one dose 10^-5 M, 48 h
OVCAR-5 = format: cell-based; details: Homo sapiens, one dose 10^-5 M, 48 h
SR = format: cell-based; details: Homo sapiens, one dose 10^-5 M, 48 h
SK-MEL-2 = format: cell-based; details: Homo sapiens, one dose 10^-5 M, 48 h
U251 = format: cell-based; details: Homo sapiens, U-251, one dose 10^-5 M, 48 h
TK-10 = format: cell-based; details: Homo sapiens, one dose 10^-5 M, 48 h
SNB-75 = format: cell-based; details: Homo sapiens, one dose 10^-5 M, 48 h
NCI-H226 = format: cell-based; details: Homo sapiens, one dose 10^-5 M, 48 h
SF-268 = format: cell-based; details: Homo sapiens, one dose 10^-5 M, 48 h, read-out: % growth

CN(C)c1ccc(-c2nc(S)nc(N)c2C(=N)NN=Cc2ccc(Br)cc2)cc1 [Compound 4e, 4-amino-N'-[(4-bromophenyl)methylene]-6-[4-(dimethylamino)phenyl]-2-mercapto pyrimidine-5-carboximidohydrazide]
activity at 10 µM (NCI-H460): 107% | activity at 10 µM (HCT-116): 101% | % cell growth at 10 µM (UO-31): 69.9% | activity at 10 µM (HS 578T): 108% | % growth at 10 µM (HCC-2998): 112% | activity at 10 µM (LOX IMVI): 98.6% | % growth at 10 µM (K-562): 99.6% | % growth at 10 µM (MALME-3M): 98.6% | % growth at 10 µM (HL-60(TB)): 91.6% | % cell growth at 10 µM (SF-295): 104% | % growth at 10 µM (SW-620): 107% | activity at 10 µM (HCT-15): 102% | % growth at 10 µM (OVCAR-4): 102% | % growth of cells at 10 µM (OVCAR-8): 113% | % growth at 10 µM (786-0): 103% | activity at 10 µM (NCI-H23): 99.3% | % growth at 10 µM (CAKI-1): 99.6% | percent cell growth at 10 µM (MDA-MB-468): 111% | % growth at 10 µM (COLO 205): 161% | activity at 10 µM (MOLT-4): 103% | activity at 10 µM (MCF7): 93.9% | % growth at 10 µM (KM12): 110% | activity at 10 µM (SNB-19): 99.4% | % growth at 10 µM (RPMI-8226): 84.4% | % growth at 10 µM (NCI-H522): 98.5% | activity at 10 µM (IGROV1): 102% | % growth at 10 µM (A498): 118% | % growth at 10 µM (UACC-62): 94% | % growth at 10 µM (HT29): 104% | % cell growth at 10 µM (BT-549): 107% | % cell growth at 10 µM (EKVX): 98.6% | % growth at 10 µM (SF-539): 101% | % growth at 10 µM (HOP-92): 112% | percent cell growth at 10 µM (PC-3): 91% | cell growth percent at 10 µM (NCI/ADR-RES): 102% | percent cell growth at 10 µM (UACC-257): 109% | % growth at 10 µM (OVCAR-3): 110% | % cell growth at 10 µM (CCRF-CEM): 88.8% | % growth at 10 µM (M14): 98.9% | % growth at 10 µM (SK-OV-3): 124% | % growth at 10 µM (SN12C): 102% | activity at 10 µM (T-47D): 97.5% | % growth at 10 µM (ACHN): 105% | activity at 10 µM (MDA-MB-435): 101% | % growth at 10 µM (A549/ATCC): 108% | activity at 10 µM (SK-MEL-5): 101% | activity at 10 µM [1]: 104% | activity on all 60 cancer cell lines tested (in words) [1]: weak activity | % growth at 10 µM (DU-145): 109% | % cell growth at 10 µM (SK-MEL-28): 104% | % growth at 10 µM (HOP-62): 108% | % growth at 10 µM (MDA-MB-231/ATCC): 102% | percent cell growth at 10 µM (OVCAR-5): 104% | percent cell growth at 10 µM (SR): 91.5% | % growth at 10 µM (SK-MEL-2): 107% | % growth at 10 µM (U251): 112% | % cell growth at 10 µM (TK-10): 115% | % growth at 10 µM (SNB-75): 114% | % growth at 10 µM (NCI-H226): 95.7% | activity at 10 µM (SF-268): 101%

CN(C)c1ccc(-c2nc(S)nc(N)c2C(=N)NN=Cc2ccc(Cl)cc2Cl)cc1 [Compound 4f, 4-amino-N'-[(2,4-dichlorophenyl)methylene]-6-[4-(dimethylamino)phenyl]-2-mercapto pyrimidine-5-carboximidohydrazide]
activity at 10 µM (NCI-H460): 116% | activity at 10 µM (HCT-116): 67.7% | % cell growth at 10 µM (UO-31): 70.2% | activity at 10 µM (HS 578T): 96.8% | % growth at 10 µM (HCC-2998): 115% | activity at 10 µM (LOX IMVI): 83.3% | % growth at 10 µM (K-562): 70.2% | % growth at 10 µM (MALME-3M): 96.8% | % growth at 10 µM (HL-60(TB)): 88.4% | % cell growth at 10 µM (SF-295): 92.7% | % growth at 10 µM (SW-620): 100% | activity at 10 µM (HCT-15): 76.7% | % growth at 10 µM (OVCAR-4): 104% | % growth of cells at 10 µM (OVCAR-8): 106% | % growth at 10 µM (786-0): 84.9% | activity at 10 µM (NCI-H23): 99.6% | % growth at 10 µM (CAKI-1): 102% | percent cell growth at 10 µM (MDA-MB-468): 113% | % growth at 10 µM (COLO 205): 166% | activity at 10 µM (MOLT-4): 100% | activity at 10 µM (MCF7): 75.3% | % growth at 10 µM (KM12): 77.5% | activity at 10 µM (SNB-19): 90.4% | % growth at 10 µM (RPMI-8226): 80.6% | % growth at 10 µM (NCI-H522): 97.2% | activity at 10 µM (IGROV1): 102% | % growth at 10 µM (A498): 114% | % growth at 10 µM (UACC-62): 92.3% | % growth at 10 µM (HT29): 107% | % cell growth at 10 µM (BT-549): 119% | % cell growth at 10 µM (EKVX): 102% | % growth at 10 µM (SF-539): 81.6% | % growth at 10 µM (HOP-92): 106% | percent cell growth at 10 µM (PC-3): 89.8% | cell growth percent at 10 µM (NCI/ADR-RES): 101% | percent cell growth at 10 µM (UACC-257): 109% | % growth at 10 µM (OVCAR-3): 110% | % cell growth at 10 µM (CCRF-CEM): 83.7% | % growth at 10 µM (M14): 103% | % growth at 10 µM (SK-OV-3): 125% | % growth at 10 µM (SN12C): 93.7% | activity at 10 µM (T-47D): 104% | % growth at 10 µM (ACHN): 107% | activity at 10 µM (MDA-MB-435): 91.8% | % growth at 10 µM (A549/ATCC): 107% | activity at 10 µM (SK-MEL-5): 99.3% | activity at 10 µM [1]: 98.9% | activity on all 60 cancer cell lines tested (in words) [1]: weak activity | % growth at 10 µM (DU-145): 111% | % cell growth at 10 µM (SK-MEL-28): 104% | % growth at 10 µM (HOP-62): 103% | % growth at 10 µM (MDA-MB-231/ATCC): 99.5% | percent cell growth at 10 µM (OVCAR-5): 107% | percent cell growth at 10 µM (SR): 73.2% | % growth at 10 µM (SK-MEL-2): 108% | % growth at 10 µM (U251): 93.2% | % cell growth at 10 µM (TK-10): 114% | % growth at 10 µM (SNB-75): 109% | % growth at 10 µM (NCI-H226): 95.5% | activity at 10 µM (SF-268): 100%
